Entries after “also recorded” stand apart in the source; their conditions may differ. Read-outs that look alike come from different tables or passages of the source.
Experiments:
[1] = test system: platelets; experiment: Collagen-induced platelet aggregation (aggregometer); assay type: cell-based, human; details: for IC50: 30 min pretreatment
Experimental: Platelet aggregation with respect to control was monitored in a Chronolog Model 560 Dual Chamber Platelet Aggregometer.
Controls were treated with vehicle (PBS supplemented with 1% DMSO) alone. The treated PRP samples were diluted 1:4 with sterile normal saline and platelets were stimulated with collagen (2 μg/mL or 5 μg/mL, Chronolog Inc., Philadelphia, Pa.) or thrombin (0.1 U/mL, Chronolog Inc., Philadelphia, Pa.) as agonists under stirred conditions. Platelet aggregation was monitored in a platelet aggregometer (Model 560 Dual Chamber-Instrument, Chronolog Ind., Philadelphia, Pa.) for 5 minutes.

[2] = test system: human platelets; experiment: Electron microscopy (HR-LVSEM, TEM) of platelet shape changes; assay type: cell-based; details: 100 μM
Experimental: HR-LVSEM was utilized for topographical imaging of the platelet surface membrane, as previously reported (D'Cruz et al., 1998). […] Treated platelets were then stimulated with collagen (10 μg/mL) or thrombin (0.1 U/mL) for 10 seconds (FIGS. 3A-3F). 3% glutaraldehyde was added to stop the reaction. Samples were prepared for HR-LVSEM as previously described (D'Cruz et al., 1998) and analyzed using a Hitachi S-900 SEM instrument (Hitachi Instruments, Gaithersburg, Md.) at an accelerating voltage of 2 kV and […].
Samples were then prepared for TEM as previously described (White, 1983). Briefly, 0.1% glutaraldehyde was added to stop the reaction. Following a brief centrifugation, the sample pellets were layered with 3% glutaraldehyde for 40 minutes at room temperature. The samples were then postfixed in 1% OsO4 for 1 hour at 4° C., rinsed three times in distilled water at room temperature, dehydrated in a graded ethanol series (25, 50, 75, 90, 95 and 100%) and 100% propylene oxide. The samples were embedded in Embed 812 (Electron Microscopy Science, Washington, Pa.). Silver sections were picked up on mesh grids, stained 10 minutes in 1% uranyle acetate/70% ethanol, and 10 minutes in Reynold's lead citrate. […] True magnifications were determined by photographing a calibration grid at each magnification step on the microscope and using this scale to determine final print enlargements.

[3] = test system: mice; experiment: Tail bleeding time in mice; assay type: in vivo
Experimental: Mice were placed in a tube holder and tail bleeding was performed with a 2 mm cut from the protruding tail tip, the tail was placed vertically into 10 mL normal saline in a 37° C. water bath and bleeding times determined as previously described (Teng et al., 1997). Platelet plug formation and clotting times on the eye after retro-orbital venupuncture were evaluated using published methods (Sheu et al., 1995).

[4] = test system: platelets; experiment: Collagen-induced calcium mobilization in platelets (fluorescence); assay type: cell-based, human; details: 100 μM; collagen 20 μg/ml
Experimental: Platelets were loaded with […] (Molecular Probes, Eugene Oreg.) for 15 minutes at 37 degrees C. […] The changes in fluorescence were monitored on a spectrofluorimeter.

[5] = test system: platelets; experiment: Inositol-1,4,5-trisphosphate production in collagen-stimulated platelets; assay type: cell-based, human
Experimental: Collagen stimulation was terminated by the addition of ice-cold 20% perchloric acid. Inositol-1,4,5,-trisphosphate (Ins-1,4,5-P3) levels were measured by using a D-myo-[^3H]inositol-1,4,5-trisphosphate assay system purchased from Amersham (Arlington Heights, Ill.), as reported (Uckun et al., 1991) (FIG. 2B). This highly sensitive assay is based on the competition between nonradiolabeled Ins-1,4,5-P3 in the cellular extracts and a fixed quantity of a high specific activity [^3H] Ins-1,4,5-P3 tracer for a limited number of binding sites on a Ins-1,4,5-P3-specific and sensitive bovine adrenal binding protein (Uckun et al., 1991).
Platelets were stimulated at 37 degrees C. with 2 μg/ml collagen for various times. Activation was stopped by the addition of ice cold 20% perchloric acid. The amount of inositol 1,4,5-triphosphate production was measured using a detection kit from Amersham.

[6] = test system: ICR mice; experiment: Thromboplastin-induced fatal thromboembolism in mice; assay type: in vivo; details: for median survival time / probability of event-free survival after thromboplastin challenge: N=10
Experimental: The mice were challenged with 25 mg/kg thromboplastin (Sigma, St. Louis, Mo.) via a bolus i.v. injection in to the tail vein as previously described (Sato et al., 1998). At the time of thromboembolism-related death, after the thromboplastin injection or elective sacrifice at 48 hours using ketamine/xylazine, all mice were perfused with PBS followed by 4% phosphate buffered formalin. PBS and formalin were pumped through the left ventricle of the heart and allowed to exit through a 3 mm incision through the anterior wall of the right ventricle.

[7] = biological target: T1, SRC (Homo sapiens, UniProt P12931); experiment: SRC activity in platelets; assay type: cell-based; details: data not shown
T1 construct: endogenous in cells; host or cells: platelets

[8] = biological target: BTK (Homo sapiens, UniProt Q06187); experiment: BTK immune complex kinase assay from collagen-stimulated platelets; details: 100 μM
Experimental: Platelets were isolated from platelet rich plasma (PRP) purchased from the Memorial Blood Bank (Minneapolis, Minn.) as previously described (Asselin et al. 1997) and used at a concentration of 3×10^9 cells/mL in a modified Tyrode's buffer (137 mM NaCl, 2.7 mM KCl, 0.9 mM MgCl2, 5.5 mM glucose, 3.3 mM NaH2PO4, 3.8 mM Hepes, pH 7.4). […] Platelets were then stimulated at 37° C. with 2 μg/mL (or 10 μg/mL) collagen or 0.1 U/mL thrombin (Chronolog Inc., Philadelphia, Pa.). Stimulation was stopped and platelets were lysed at the indicated time points by adding ice cold 3x Triton X-100 lysis buffer (150 mM NaCl, 15 mM EGTA, 3% Triton X-100, 3% Sodium deoxycholate, 0.3% SDS, 3 mM PMSF, 3 mM Na3 VO4, 60 μg/mL leupeptin, 60 μg/mL aprotinin, 50 mM Tris-HCl pH 7.4) and incubating for 1 hour on ice. Following removal of the membranous fraction by centrifugation (12,000xg, 30 min) the samples were subjected to immunoprecipitation utilizing antibodies raised against BTK (Santa Cruz Biotechnologies, Santa Cruz, Calif.), TEC (Upstate Biotechnology, Lake Placid, N.Y.) and PLCγ2 (Santa Cruz Biotechnologies, Santa Cruz, Calif.) (Vassilev et al., 1999). Immunoprecipitations, immune-complex protein kinase assays, and immunoblotting on PVDF membranes (Milipore, Bedford, Mass.) using the ECL chemiluminescence detection system (Amersham Life Sciences, Arlington Heights, Ill.) were conducted as described previously (Mahajan et al., 1999; Sudbeck et al., 1999; Uckun et al., 1996a; Uckun et al., 1996b).
For immunoblotting, antibodies against phosphotyrosine (Transduction Labs, Lexington, Ky.), BTK (Santa Cruz Biotechnologies, Santa Cruz, Calif.), TEC (Upstate Biotechnology, Lake Placid, N.Y.) and PLCγ2 (Santa Cruz Biotechnologies, Santa Cruz, Calif.) were used. Horse radish peroxidase-conjugated sheep anti-mouse, donkey anti-rabbit secondary antibodies were purchased from Transduction Laboratories (Lexington, Ky.). Horse radish peroxidase-conjugated sheep anti-goat antibodies were purchased from Santa Cruz (Santa Cruz, Calif.). Following electrophoresis, kinase gels were dried onto Whatman 3M filter paper and subjected to phosphoimaging on a Molecular Imager (Bio-Rad, Hercules, Calif.) as well as autoradiography on film. Similarly, all chemiluminescent BTK/TEC Western blots were subjected to three dimensional densitometric scanning using the Molecular Imager and Imaging Densitometer using the Molecular Analyst/Macintosh version 2.1 software following the specifications of the manufacturer (Bio-Rad).
Antibodies raised against BTK and TEC utilized for immunoprecipitations and Western blot analysis were purchased from Santa Cruz (Santa Cruz, Calif.).
For each drug concentration, a BTK/TEC kinase activity index as determined by comparing the ratios of the kinase activity in phosphorimager units (PIU) and density of the protein bands in densitometric scanning units (DSU) to those of the baseline sample and using the formula: Activity Index=[PIU of kinase band/DSU of BTK/TEC protein band]test sample: [PIU of kinase band/DSU of BTK/TEC protein band]baseline control sample (FIGS. 1A-1D).
The samples were subjected to immunoprecipitation utilizing antibodies raised against BTK. The BTK immune complexes were subjected to immune kinase assays.

[9] = biological target: T2, SYK (Homo sapiens, UniProt P43405); experiment: SYK activity in platelets; assay type: cell-based; details: data not shown
T2 construct: endogenous in cells; host or cells: platelets

[10] = 30 min, 0 seconds after 2 μg/ml collagen
[11] = 30 min, 90 seconds after 2 μg/ml collagen

BTK, sequence (Q06187 whole entry): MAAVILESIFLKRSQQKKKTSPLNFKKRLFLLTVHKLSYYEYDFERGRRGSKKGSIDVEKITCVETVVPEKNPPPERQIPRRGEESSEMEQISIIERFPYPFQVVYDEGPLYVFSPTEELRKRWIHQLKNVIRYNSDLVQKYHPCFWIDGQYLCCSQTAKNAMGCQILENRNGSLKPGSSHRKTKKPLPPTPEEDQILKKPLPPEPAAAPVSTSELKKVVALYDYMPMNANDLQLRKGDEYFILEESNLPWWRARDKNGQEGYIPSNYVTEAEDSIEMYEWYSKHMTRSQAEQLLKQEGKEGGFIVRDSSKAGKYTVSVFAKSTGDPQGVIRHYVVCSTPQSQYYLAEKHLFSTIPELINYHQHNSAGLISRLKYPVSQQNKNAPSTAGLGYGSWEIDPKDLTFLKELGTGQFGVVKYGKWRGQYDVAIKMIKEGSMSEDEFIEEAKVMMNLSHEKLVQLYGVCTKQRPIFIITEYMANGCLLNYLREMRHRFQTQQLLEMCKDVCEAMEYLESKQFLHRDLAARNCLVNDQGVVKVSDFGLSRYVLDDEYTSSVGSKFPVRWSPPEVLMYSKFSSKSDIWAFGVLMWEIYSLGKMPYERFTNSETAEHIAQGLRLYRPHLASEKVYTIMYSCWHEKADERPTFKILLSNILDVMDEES
T1 sequence (P12931 whole entry): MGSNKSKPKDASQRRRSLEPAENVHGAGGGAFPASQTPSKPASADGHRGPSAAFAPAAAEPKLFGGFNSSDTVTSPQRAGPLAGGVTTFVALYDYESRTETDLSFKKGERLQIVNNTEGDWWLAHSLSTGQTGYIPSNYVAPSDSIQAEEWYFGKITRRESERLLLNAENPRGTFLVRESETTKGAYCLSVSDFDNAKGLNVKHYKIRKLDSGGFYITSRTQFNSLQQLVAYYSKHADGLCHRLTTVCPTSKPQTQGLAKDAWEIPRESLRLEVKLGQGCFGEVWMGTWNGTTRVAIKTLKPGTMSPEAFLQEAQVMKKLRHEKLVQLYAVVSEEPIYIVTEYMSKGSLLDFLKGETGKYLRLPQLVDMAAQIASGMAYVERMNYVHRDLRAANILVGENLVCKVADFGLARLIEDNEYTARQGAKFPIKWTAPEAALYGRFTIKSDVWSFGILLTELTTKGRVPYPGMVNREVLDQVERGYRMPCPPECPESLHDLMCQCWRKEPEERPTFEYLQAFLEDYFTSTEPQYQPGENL

C/C(O)=C(\C#N)C(=O)Nc1cc(Br)ccc1Br [LFM-A13, α-cyano-β-hydroxy-β-methyl-N-(2,5-dibromophenyl)-propenamide]
collagen-induced platelet aggregation at 100 μM ([1]; 100 μM, 30 minute pretreatment, 2 μg/mL collagen): completely prevented | IC50 ([1]; Homo sapiens, Platelet, read-out: IC50 inhibition of platelet aggregation, 2 μg/mL collagen): 2780 nM | IC50 ([1]; Homo sapiens, Platelet, read-out: IC50 inhibition of platelet aggregation, 5 μg/mL collagen): 66100 nM | platelet response to high and low doses of collagen, PRP ([1]; PRP treated 20 min or 24 hours, collagen 2 or 5 μg/mL): significantly reduced | IC50 ([1]; read-out: IC50 inhibition of platelet aggregation, 2 μg/mL collagen): 2800 ± 930 nM | collagen-induced pseudopod formation ([2]; 30 min, collagen 10 μg/mL, 10 seconds): inhibited collagen-induced pseudopod formation; also recorded: no pseudopods were observed | thrombin-induced shape changes ([2]; thrombin 0.1 U/mL): did not inhibit the thrombin-induced shape changes | prolongation of tail bleeding time versus vehicle ([3]; 20 mg/kg): 4.9 fold | average tail bleeding time ([3]; 20 mg/kg i.v., N=5): 7.4 ± 1.0 min | prolongation of tail bleeding time versus vehicle ([3]; 40 mg/kg): 5.6 fold | average tail bleeding time ([3]; 40 mg/kg i.v., N=5): 8.5 ± 0.6 min | prolongation of tail bleeding time versus vehicle ([3]; 80 mg/kg): 6.3 fold | average tail bleeding time ([3]; 80 mg/kg i.v., N=12): 9.5 ± 0.5 min | collagen-induced calcium mobilization [4]: significantly reduced | % control inositol 1,4,5-triphosphate production (peak response) ([5]; 100 μM LFM-A13 alone, no collagen): 75 % control | % control inositol 1,4,5-triphosphate production (peak response) ([5]; 100 μM LFM-A13 and 2 μg/ml collagen): 75 % control | Ins-1,4,5-P3 levels between 30 and 60 seconds after collagen stimulation ([5]; 100 μM pretreatment): remained at baseline | collagen-stimulated PI-PLC activity ([5]; 100 μM, 30 min, 2 μg/ml collagen): inhibited collagen-stimulated PI-PLC activity | Ins-1,4,5-P3 levels ([5]; 100 μM, 30 min pretreatment, 30 seconds after collagen stimulation): 17.8±1.4 pmols/10^9 platelets | inhibition at 100 µM ([5]; Homo sapiens, Platelet, read-out: % inhibition of inositol 1,4,5-triphosphate production): 100% | median survival time ([6]; LFM-A13 20 mg/kg): 8.0 min | probability of event-free survival after thromboplastin challenge ([6]; LFM-A13 20 mg/kg): 20±13% | median survival time ([6]; LFM-A13 40 mg/kg): > 2880 min | probability of event-free survival after thromboplastin challenge ([6]; LFM-A13 40 mg/kg): 80±13% | drug-related toxic lesions in organs ([6]; LFM-A13 pretreated, thromboplastin-challenged mice): No drug-related toxic lesions were detected | baseline and collagen-induced SRC activity in platelets [7]: did not inhibit the baseline activity of SYK or SRC or prevent collagen-induced SYK and SRC activation | DSU (density of BTK protein band, densitometric scanning units) [8, 10]: 1236 | PIU (BTK autophosphorylation, phosphorimager units) [8, 10]: 78 | BTK kinase activity in collagen-stimulated platelets ([8]; 30 min, 2 μg/mL collagen): completely prevented collagen-induced stimulation of BTK; also recorded: significantly inhibited BTK kinase activity | DSU (density of BTK protein band, densitometric scanning units) [8, 11]: 1432 | PIU (BTK autophosphorylation, phosphorimager units) [8, 11]: 68 | reduction of baseline BTK activity in platelets ([8]; 30 min at 37° C.): > 90% | baseline and collagen-induced SYK activity in platelets [9]: did not inhibit the baseline activity of SYK or SRC or prevent collagen-induced SYK and SRC activation

Source: US6589992B2, “Inhibiting collagen-induced platelet aggregation” (Parker Hughes Institute, priority 1999, dated 2003)
